Values of other authors in paper PMC12910647, “Tumor-Targeted Delivery of an EGFR Inhibitor Prodrug via Site-Specific Albumin Conjugation” (Journal of Medicinal Chemistry, 2026).

Design: method as in not given
Settings: in mice, reported value; ref not given

C=CC(=O)Nc1cc(Nc2nccc(-c3cn(C)c4ccccc34)n2)c(OC)cc1N(C)CCN(C)C [osimertinib]
maximum tolerated dose (MTD): 25 mg/kg
